Data: US9139502B2, “Use of an urushiol compound in preparation of pharmaceutical compositions for inhibiting Smad3 phosphorylation” (Southern Hospital, Southern Medical University, priority 2013, dated 2015)

Tests used:
PI3K = assay: Western blot of PI3K phosphorylation in UUO kidneys; format: in vivo, rat; conditions: UUO rats, GQ-5 40 mg/kg daily i.p. right after UUO, sacrificed day 14
Procedure: Male Sprague-Dawley rats with body weight 200 to 250 g were randomized into 3 groups (n=6 in each group): (1) sham operated rats; (2) UUO rats; (3) UUO+GQ-5 rats.
(§1) GQ-5 was dissolved in 5% propylene glycol.
(3) UUO+GQ-5 rats: daily intraperitoneal injection of GQ-5 (40 mg/kg body weight) right after UUO;
UUO was performed using an established protocol as described. GQ-5 was dissolved in 5% propylene glycol. Rats were administrated with GQ-5 as described before. All the rats were sacrificed 14 days after UUO. Western blot analyses were performed to examine the Smad4, Smad7 expression and p38, PI3K, ERK phosphorylation.

collagen I = assay: Real-time PCR of TGF-β1-induced collagen I mRNA in vitro; format: cell-based, rat; conditions: NRK 52E and NRK 49F cells, GQ-5 0.1-2.5 μM pre-treated 1 h, TGF-β1 10 ng/ml 36 h
Procedure: (§2) NRK52E and NRK49F cells were cultured in DMEM-Ham's medium supplemented with 10% fetal bovine serum. The cells reached at approximately 50% confluence were used for in vitro experiments. Cells were serum-starved for 12 h, and randomized into 6 groups: (1) Controls; (2) GQ-5 only; (3) TGF-β1 only; (4) TGF-β1+GQ-5 0.1 μM; (5) TGF-β1+GQ-5 0.5 μM; (6) TGF-β1+GQ-5 2.5 μM
(2) GQ-5 only: pre-treated with GQ-5 (2.5 μM) for 1 h, followed with DMEM for 36 h
(3) TGF-β1 only: pre-treated with DMSO for 1 h, followed with TGF-β1 (10 ng/ml) for 36 h
(4) TGF-β1+GQ-5 0.1 μM: pre-treated with GQ-5 (0.1 μM) for 1 h, followed with TGF-β1 (10 ng/ml) for 36 h
(5) TGF-β1+GQ-5 0.5 μM: pre-treated with GQ-5 (0.5 μM) for 1 h, followed with TGF-β1 (10 ng/ml) for 36 h
(6) TGF-β1+GQ-5 2.5 μM: pre-treated with GQ-5 (2.5 μM) for 1 h, followed with TGF-β1 (10 ng/ml) for 36 h
GQ-5 was dissolved in DMSO. Cells were treated as described. Cells were collected for mRNA extraction. Real-rime PCR was performed to examine the mRNA expression of α-SMA, collagen I and fibronectin.

[1] = target: interaction of Smad2 with TβRI (Rattus norvegicus, UniProt O70436); assay: Immunoprecipitation of Smad2 with TβRI in vitro; format: cell-based; parameters: endogenous in cells; host or cells: NRK52E; conditions: NRK52E cells, GQ-5 2.5 nM pre-treated 1 h, TGF-β1 10 ng/ml 1 h
Procedure: as §2, with “NRK52E” for “NRK52E and NRK49F”, “4” for “6”, “TGF-β1+GQ-5” for “TGF-β1+GQ-5 0.1 μM; (5) TGF-β1+GQ-5 0.5 μM; (6) TGF-β1+GQ-5 2.5 μM”
(2) GQ-5 only: pre-treated with GQ-5 (2.5 nM) for 1 h, followed with DMEM for 1 h
(3) TGF-β1 only: pre-treated with DMSO for 1 h, followed with TGF-β1 (10 ng/ml) for 1 h
(4) TGF-β1+GQ-5: pre-treated with GQ-5 (2.5 nM) for 1 h, followed with TGF-β1 (10 ng/ml) for 1 h
GQ-5 was dissolved in DMSO. Cells were treated as described. Cell lysates were collected for immunoprecipitation to examine the interaction among TGFβ type I receptor (TβRI), TβRII, Smad3 and Smad2.

C57BL/6J mice = assay: Single-dose toxicity of GQ-5 in mice; format: in vivo; conditions: single intraperitoneal dose up to 800 mg/kg, 7-day observation
Procedure: To test the toxicity of GQ-5, 20 C57BL/6J little male mice which are […], healthy and clean, their weights are between 20 and 22 gram. Antisepsis the feed and water, before and in the layoff period of the test, all the mice should be feed under the normal feeding condition.
Dissolve GQ-5 in 0.5% propylene glycol, this liquor is given to little mice by intraperitoneal injection. The dosage of GQ-5 was 10, 40, 200, and 800 mg/kg body weight of mice. After administration, they are observed for 7 days.

fibronectin = assay: Fibronectin expression in UUO kidney tissue (real-time PCR, immunohistochemistry, Western blot); format: in vivo, rat; conditions: UUO rats, GQ-5 40 mg/kg daily i.p., sacrificed day 14
Procedure: Male Sprague-Dawley rats were randomized into 4 groups (n=6 in each group): (1) sham operated rats; (2) UUO rats; (3) UUO+GQ-5 d1 rats; (4) UUO+GQ-5 d7 rats.
as §1
(3) UUO+GQ-5 d1 rats: daily intraperitoneal injection of GQ-5 (40 mg/kg body weight) right after UUO;
(4) UUO+GQ-5 d7 rats: daily intraperitoneal injection of GQ-5 (40 mg/kg body weight) 7 days after UUO.
UUO was performed using an established protocol as described. GQ-5 was dissolved in 5% propylene glycol. Rats were administrated with GQ-5 as described before. All the rats were sacrificed 14 days after UUO. HE staining, Masson trichrome staining were performed to examine the renal tissue injury, and Real-time PCR analyses, immunohistochemical staining, and Western blot analyses were performed to examine α-SMA, collagen I and fibronectin expression in kidney tissue

Chain of interaction of Smad2 with TβRI (O70436 whole entry): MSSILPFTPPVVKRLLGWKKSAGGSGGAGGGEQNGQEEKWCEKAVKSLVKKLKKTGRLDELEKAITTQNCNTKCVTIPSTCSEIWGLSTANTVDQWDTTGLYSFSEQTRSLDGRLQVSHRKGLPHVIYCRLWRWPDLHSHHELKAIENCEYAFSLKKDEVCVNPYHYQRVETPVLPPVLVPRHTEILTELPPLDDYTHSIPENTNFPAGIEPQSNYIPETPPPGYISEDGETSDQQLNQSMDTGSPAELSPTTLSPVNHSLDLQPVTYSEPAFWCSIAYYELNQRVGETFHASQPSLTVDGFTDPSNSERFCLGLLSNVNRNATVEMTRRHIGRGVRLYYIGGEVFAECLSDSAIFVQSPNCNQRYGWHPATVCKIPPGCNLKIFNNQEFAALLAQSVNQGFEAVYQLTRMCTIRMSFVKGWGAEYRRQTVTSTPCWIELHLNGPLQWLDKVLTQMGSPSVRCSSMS

CCCCCC/C=C\CCCCCCCc1cccc(O)c1O [GQ-5, 3-[(Z)-pentadec-8-enyl]catechol]
phosphorylation of PI3K (PI3K): did not affect
TGF-β1-induced mRNA expression of collagen I (collagen I): significantly inhibited
interaction of Smad2 with TβRI [1]: did not affect
death or adverse event (C57BL/6J mice): did not die or developed any adverse event
up-regulation of fibronectin at both mRNA and protein level (fibronectin): significantly inhibited
